Reference: patent US20250243186A1, “PIPERIDINYL INDOLE DERIVATIVES, PREPARATION METHODS AND MEDICINAL USES THEREOF” (HANSOH BIO LLC, priority 2021, published 2025)

These molecules were tested against Recombinant human Factor B catalytic domain (Homo sapiens (Human), UniProt P00751) (assay: Factor B binding assay by TR-FRET). Settings: Factor B TR-FRET IC50 (nM), 10 nM his-tagged Factor B catalytic domain, 100 nM tracer, 1 h.
Sequence of Recombinant human Factor B catalytic domain (P00751 470-764): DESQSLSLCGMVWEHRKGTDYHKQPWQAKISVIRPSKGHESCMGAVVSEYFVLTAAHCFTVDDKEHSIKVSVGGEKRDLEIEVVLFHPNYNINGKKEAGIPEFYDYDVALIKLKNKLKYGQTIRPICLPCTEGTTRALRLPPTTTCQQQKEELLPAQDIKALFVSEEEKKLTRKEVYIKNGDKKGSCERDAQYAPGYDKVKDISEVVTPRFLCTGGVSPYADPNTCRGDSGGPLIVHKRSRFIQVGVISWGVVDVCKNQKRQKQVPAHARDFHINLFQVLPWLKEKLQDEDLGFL
Description: • 1. […] 5× Kinase Buffer A (Thermo Fisher, CAT #PV3189) • 3. LANCE Eu-W1024 Anti-6×His Antibody (PerkinElmer, CAT #AD0401) • 4.
DMSO (Thermo Fisher Scientific) • 6. Compounds—10 mM stock in DMSO • 7. Victor Nivo multimode plate reader (PerkinElmer) • 8.
Factor B binding affinity of each compound tested was determined using a time-resolved fluorescence resonance energy transfer (TR-FRET) technology. 10 nM recombinant his-tagged Factor B catalytic domain, varying concentrations of inhibitors, 4 nM LANCE Eu-W1024 Anti-6×His Antibody and 100 nM TR-FRET_tool2 tracer was incubated in 1× Kinase Buffer A for 1 h. Measurement was performed in a reaction volume of 15 μL by adding 5 μL of the test compound, 5 μL of Factor B/antibody mixture and 5 μL of tracer into white opaque 384-well assay plates.

Q: Which IC50 does the source give for `Cc1cc(C)c2[nH]ccc2c1CN1CCC(CCCO)=CC1c1ccc(C(=O)O)cc1` (single isomer, unassigned) [2 (Isomer 2), 4-(1-((5,7-dimethyl-1H-indol-4-yl)methyl)-4-(3-hydroxypropyl)-1,2,5,6-tetrahydropyridin-2-yl)benzoic acid] here?
A: 360 nM

Q: With `Cc1cc(C)c2[nH]ccc2c1CN1CCC2(CCCO2)CC1c1ccc(C(=O)O)cc1` (single isomer, unassigned) [2 (Isomer 3), 4-(8-((5,7-dimethyl-1H-indol-4-yl)methyl)-1-oxa-8-azaspiro[4.5]decan-7-yl)benzoic acid] as the molecule, how does the IC50 read?
A: 507 nM

Q: Which IC50 does the source give for `Cc1cc(C)c2[nH]ccc2c1CN1CCC2(CCCO2)CC1c1ccc(C(=O)O)cc1` (single isomer, unassigned) [2 (Isomer 6), 4-(8-((5,7-dimethyl-1H-indol-4-yl)methyl)-1-oxa-8-azaspiro[4.5]decan-7-yl)benzoic acid] here?
A: 60 nM

Q: `Cc1cc(C)c2[nH]ccc2c1CN1CCC(C(F)F)CC1c1ccc(C(=O)O)cc1` (single isomer, unassigned) [6 (Isomer 2), 4-(4-(difluoromethyl)-1-((5,7-dimethyl-1H-indol-4-yl)methyl)piperidin-2-yl)benzoic acid] was tested. Which IC50 did it give?
A: 142 nM

Q: Which IC50 does the source give for `Cc1cc(C)c2[nH]ccc2c1CN1CCC(CF)CC1c1ccc(C(=O)O)cc1` (single isomer, unassigned) [7 (Isomer 1), 4-(1-((5,7-dimethyl-1H-indol-4-yl)methyl)-4-(fluoromethyl)piperidin-2-yl)benzoic acid] here?
A: 313 nM

Q: For `Cc1cc(C)c2[nH]ccc2c1CN1CCC(CF)CC1c1ccc(C(=O)O)cc1` (single isomer, unassigned) [7 (Isomer 2), 4-(1-((5,7-dimethyl-1H-indol-4-yl)methyl)-4-(fluoromethyl)piperidin-2-yl)benzoic acid], which IC50 is on record?
A: 157 nM

Q: How did the IC50 turn out when `COc1cc(C)c2[nH]ccc2c1CN1CCC2(CC1c1ccc(C(=O)O)cc1)CC2(F)F` (single isomer, unassigned) [8 (Isomer 2), 4-(1,1-difluoro-6-((5-methoxy-7-methyl-1H-indol-4-yl)methyl)-6-azaspiro[2.5]octan-5-yl)benzoic acid] was run?
A: 245 nM

Q: Which IC50 does the source give for `Cc1cc(C)c2[nH]ccc2c1CN1C[C@@H]2CCCC2C1c1ccc(C(=O)O)cc1` (single isomer, unassigned) [9 (Isomer 2), 4-(2-((5,7-dimethyl-1H-indol-4-yl)methyl)octahydrocyclopenta[c]pyrrol-1-yl)benzoic acid] here?
A: 40.6 nM

Q: Which IC50 does the source give for `COc1cc(C)c2[nH]ccc2c1CN1CC2CCCC2C1c1ccc(C(=O)O)cc1` (single isomer, unassigned) [13 (Isomer 1), 4-(2-((5-methoxy-7-methyl-1H-indol-4-yl)methyl)octahydrocyclopenta[c]pyrrol-1-yl)benzoic acid] here?
A: 17.4 nM

Q: How did the IC50 turn out when `COc1cc(C)c2[nH]ccc2c1CN1CCC2(CCC1c1ccc(C(=O)O)cc1)CC2(F)F` (single isomer, unassigned) [24 (Isomer 1), 4-(1,1-difluoro-6-((5-methoxy-7-methyl-1H-indol-4-yl)methyl)-6-azaspiro[2.6]nonan-7-yl)benzoic acid] was run?
A: 1410 nM

Q: Which IC50 does the source give for `COc1cc(C)c2[nH]ccc2c1CN1CCC2(CCC1c1ccc(C(=O)O)cc1)CC2(F)F` (single isomer, unassigned) [24 (Isomer 2), 4-(1,1-difluoro-6-((5-methoxy-7-methyl-1H-indol-4-yl)methyl)-6-azaspiro[2.6]nonan-7-yl)benzoic acid] here?
A: 729 nM

Q: For `COc1cc(C)c2[nH]ccc2c1CN1CCCCC1c1ccc(C(=O)O)cc1C(F)F` (single isomer, unassigned) [26 (Isomer 1), 3-(difluoromethyl)-4-(1-((5-methoxy-7-methyl-1H-indol-4-yl)methyl)piperidin-2-yl)benzoic acid], which IC50 is on record?
A: 31.5 nM

Q: For `COc1cc(C)c2[nH]ccc2c1CN1CC2(CCOC2)CC1c1ccc(C(=O)O)cc1` (single isomer, unassigned) [28 (Isomer 2), 4-(7-((5-methoxy-7-methyl-1H-indol-4-yl)methyl)-2-oxa-7-azaspiro[4.4]nonan-8-yl)benzoic acid], which IC50 is on record?
A: 81.5 nM
